Assay [1] has as its system Escherichia coli (018; co1V^+). Briefly: Minimal inhibitory concentration (MIC) in broth culture. In kind it is cell-based. As to conditions: trypticase soy broth with sodium bicarbonate, approx. 10^4 bacteria per ml, 18 hours at 37°C, 5% CO2 in air, lowest concentration with no visible growth, read-out: MIC Values E. coli. As to the method:
(§1) Experiments were carried out to find the minimal inhibitory concentrations (MIC) for solutions of various indium complexes against Staphylococcus aureus (human isolate), Escherichia coli (018; co1V^+) and Klebsiella pneumoniae and to compare these with the MIC values for the corresponding metal-free compounds. The complexes were prepared in solution as described in Example 1 except that in the case of the complex of 7-iodo-8-hydroxyquinoline 5-sulphonic acid, 5 molar equivalents of metal-free compound were reacted with the indium chloride trihydrate and the solution was prepared in water. The solutions of the metal-free compounds were prepared in the same solvent as used for the equivalent complex.
(§2) The culture medium used consisted of a 9:1 mixture of trypticase soy broth and 6% w/v aqueous sodium bicarbonate solution. The medium was bulk inoculated with approximately 10^4 test bacteria per ml and 5.0 ml aliquots were then dispensed into sterile 20 ml bottles to which 0.05 ml of the test solution had been added. The test solutions were obtained from the original solution of the indium complex or metal-free compound by dilution to give a suitable range of concentrations in µM. Control samples, to which either no test solution was added or to which the solvent of the test solution only was added, were also prepared.
(§3) For each compound tested the samples at the various concentrations were studied to determine the lowest concentration of the compound at which no growth could be seen. The MIC values thus obtained are shown in Table 1 where it will be seen that the values are in each case lower for the indium complex as compared with the metal-free compound.

A further assay relates to Klebsiella pneumoniae. The assay is described as above. It counts as cell-based. As to conditions: trypticase soy broth with sodium bicarbonate, approx. 10^4 bacteria per ml, 18 hours at 37°C, 5% CO2 in air, lowest concentration with no visible growth, read-out: MIC Values K. pneumoniae. As to the method:
as §1, §2, §3

Assay [2] concerns Staphylococcus aureus (human isolate). The assay is described as above. It counts as cell-based. The note with it: trypticase soy broth with sodium bicarbonate, approx. 10^4 bacteria per ml, 18 hours at 37°C, 5% CO2 in air, lowest concentration with no visible growth, read-out: MIC Values S. aureus. As to the method:
as §1, §2, §3

Another assay relates to E. coli (108, co1V^+). In kind it is in vivo. The note with it: groups of 5 Parks mice infected i.p. with 8.0 x 10^6 E. coli, i.p. treatment 0.2 ml twice per day for 1 day (indium complex 4.6 mg/kg, metal-free compound 3.4 mg/kg per dose). The procedure: (§4) The solutions for administration were prepared as follows: • (1) 2 equivalents of 5,7-dichloro-8-hydroxyquinoline were dissolved in a 15 mM solution of InCl3·3H2O in ethanol containing 1% v/v of glycerol. A 1.0 ml aliquot of this solution was dried in vacuo using a sterile universal container and the resultant residue was treated with 15 ml of sterile 0.15 M aqueous sodium chloride containing 1 % w/v of sodium bicarbonate and the solid dispersed by sonication. A 0.2 ml dose of the final preparation corresponds to a dose of 4.6 mg/kg in a 25 g mouse. • (2) 6.4 mg of 5,7-dichloro-8-hydroxyquinoline were moistened by the addition of 0.05 ml of dimethyl sulphoxide and to the moistened material was added 15 ml of sterile 0.15 M aqueous sodium chloride containing 1% w/v of sodium bicarbonate, the solid then being dispersed by sonication. A 0.2 ml dose of the final preparation corresponds to a dose of 3.4 mg/kg in a 25 g mouse.
Groups of 5 male or female Parks mice weighing from 23-25 g were infected by intraperitoneal injection of one of 8.0 x 10^6 E. coli, 3.5 x 10^5 K. pneumoniae and 7.0 x 10^8 S. aureus, the organisms in each case being suspended in 0.2 ml of 10% v/v trypticase soy broth in 0.15 M aqueous sodium chloride, three groups of mice being infected with each organism. […]

The next assay relates to K. pneumoniae. Briefly: In vivo test in intraperitoneally infected mice (deaths). The note with it: groups of 5 Parks mice infected i.p. with 3.5 x 10^5 K. pneumoniae, i.p. treatment 0.2 ml twice per day for 4 days (indium complex 4.6 mg/kg, metal-free compound 3.4 mg/kg per dose). The procedure: as §4
(§5) Groups of 5 male or female Parks mice weighing from 23-25 g were infected by intraperitoneal injection of one of 8.0 x 10^6 E. coli, 3.5 x 10^5 K. pneumoniae and 7.0 x 10^8 S. aureus, the organisms in each case being suspended in 0.2 ml of 10% v/v trypticase soy broth in 0.15 M aqueous sodium chloride, three groups of mice being infected with each organism. For each organism, one of the three groups of infected mice was treated by intraperitoneal injection with 0.2 ml of a suspension of the indium complex whilst a second group was similarly treated with 0.2 ml of a supsension of the metal-free compound. The treatment was given twice per day for 1 day in the case of E. coli infection, twice per day for 4 days in the case of K. pneumoniae infection, and twice per day for 2 days in the case of the S. aureus infection. The third group of mice in each case received no treatment.

In assay [3] the test system is S. aureus (human isolate). The assay is described as above. As to conditions: groups of 5 Parks mice infected i.p. with 7.0 x 10^8 S. aureus, i.p. treatment 0.2 ml twice per day for 2 days (indium complex 4.6 mg/kg, metal-free compound 3.4 mg/kg per dose). The procedure:
as §4, §5

The values that follow come from patent EP0096457B1, “Indium complexes of substituted 8-hydroxy-quinolines, pharmaceutical compositions containing them and their use as antibacterial agents” (NATIONAL RESEARCH DEVELOPMENT CORPORATION, priority 1982, dated 1983).

Converted amounts (≈) assume the structure as drawn.

The term MIC denotes the least concentration at which growth counts as inhibited. Consider `O=S(=O)(O)c1cc(I)c(O)c2ncccc12` [7-Iodo-8-hydroxyquinoline 5-sulphonic acid], for which the MIC (in assay [1]; in the assay with Klebsiella pneumoniae; in assay [2]) was greater than 500 µM each time.
For the molecule `Oc1c(Cl)cc(Cl)c2cccnc12` [5,7-dichloro-8-hydroxyquinoline], the MIC in assay [1] stood at 100 µM (≈ 21.4 µg/mL); in the assay on Klebsiella pneumoniae, 100 µM (≈ 21.4 µg/mL); in assay [2] it was 6.3 µM (≈ 1.35 µg/mL). Moreover, the “Deaths at 7 days” value in the assay on E. coli (108, co1V^+) amounted to 5; in the assay on K. pneumoniae, 5; in assay [3], 4. Moreover, the Deaths % in the assay on E. coli (108, co1V^+) (at 7 days) amounted to 100%; in the assay with K. pneumoniae (at 7 days), 100%; in assay [3] (at 7 days), 80%.
In the case of `Oc1ccc(Cl)c2cccnc12` [5-Chloro-8-hydroxyquinoline], the MIC in assay [1] turned out to be 38.5 µM (≈ 6.91 µg/mL); with Klebsiella pneumoniae it was 38.5 µM (≈ 6.91 µg/mL); in assay [2], 18.8 µM (≈ 3.38 µg/mL).
